{"source": "ChEMBL document CHEMBL3774360", "about": "“Potent multitarget FAAH-COX inhibitors: Design and structure-activity relationship studies” (Eur J Med Chem, 2016)", "key": {"[1]": {"target": "Adrenergic receptor alpha-2 (Homo sapiens) (UniProt P08913+P18825+P18089)", "assay": "Binding affinity to alpha-2 adrenergic receptor (unknown origin) at 10 uM by radioligand binding assay"}, "[2]": {"target": "Type-1 angiotensin II receptor (Homo sapiens) (UniProt P30556)", "sequence (P30556 whole entry)": "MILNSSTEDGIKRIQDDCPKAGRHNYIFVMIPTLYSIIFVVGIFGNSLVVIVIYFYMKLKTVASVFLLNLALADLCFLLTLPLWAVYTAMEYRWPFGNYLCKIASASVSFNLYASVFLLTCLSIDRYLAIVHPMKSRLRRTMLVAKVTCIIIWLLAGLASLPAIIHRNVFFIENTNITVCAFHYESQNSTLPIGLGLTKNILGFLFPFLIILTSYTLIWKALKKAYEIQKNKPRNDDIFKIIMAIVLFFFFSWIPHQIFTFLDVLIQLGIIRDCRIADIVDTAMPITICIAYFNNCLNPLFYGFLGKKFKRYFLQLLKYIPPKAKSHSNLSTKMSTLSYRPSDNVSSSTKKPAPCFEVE", "assay": "Binding affinity to human angiotensin receptor 1 at 10 uM by radioligand binding assay"}, "Homo sapiens [3]": {"organism": "Homo sapiens", "assay": "Binding affinity to sodium channel site 2 (unknown origin) at 10 uM by radioligand binding assay"}, "[4]": {"target": "Thromboxane A2 receptor (Homo sapiens) (UniProt P21731)", "sequence (P21731 whole entry)": "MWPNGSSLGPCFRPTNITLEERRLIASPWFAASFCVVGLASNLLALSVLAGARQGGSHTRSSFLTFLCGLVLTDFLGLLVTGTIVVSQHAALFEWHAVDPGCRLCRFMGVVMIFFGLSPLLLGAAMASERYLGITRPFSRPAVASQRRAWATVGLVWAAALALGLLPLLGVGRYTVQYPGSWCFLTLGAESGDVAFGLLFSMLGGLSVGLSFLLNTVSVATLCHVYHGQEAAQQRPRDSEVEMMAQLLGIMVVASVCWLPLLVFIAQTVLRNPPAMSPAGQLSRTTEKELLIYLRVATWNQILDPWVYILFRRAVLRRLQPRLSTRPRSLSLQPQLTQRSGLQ", "assay": "Antagonist activity against human TP receptor at 10 uM", "design": "scale not given: the % may be the effect or the level left"}, "Homo sapiens [5]": {"organism": "Homo sapiens", "assay": "Binding affinity to I2 imidazoline binding site (unknown origin) at 10 uM by radioligand binding assay"}, "[6]": {"target": "B2 bradykinin receptor (Homo sapiens) (UniProt P30411)", "sequence (P30411 whole entry)": "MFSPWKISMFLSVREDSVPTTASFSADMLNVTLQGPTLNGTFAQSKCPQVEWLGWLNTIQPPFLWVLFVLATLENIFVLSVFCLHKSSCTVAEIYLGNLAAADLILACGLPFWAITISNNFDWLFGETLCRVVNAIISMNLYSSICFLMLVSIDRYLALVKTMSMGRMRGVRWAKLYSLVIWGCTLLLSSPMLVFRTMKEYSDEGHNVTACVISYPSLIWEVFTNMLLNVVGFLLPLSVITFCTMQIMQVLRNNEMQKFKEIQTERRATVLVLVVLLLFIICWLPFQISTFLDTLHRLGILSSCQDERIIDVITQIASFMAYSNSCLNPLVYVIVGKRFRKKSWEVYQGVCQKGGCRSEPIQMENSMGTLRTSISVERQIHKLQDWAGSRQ", "assay": "Binding affinity to human bradykinin 2 receptor at 10 uM by radioligand binding assay"}, "[7]": {"target": "Endothelin receptor type B (Homo sapiens) (UniProt P24530)", "assay": "Binding affinity to human ETB receptor at 10 uM by radioligand binding assay"}, "[8]": {"target": "Adenosine receptor A2a (Homo sapiens) (UniProt P29274)", "assay": "Binding affinity to human adenosine A2A receptor at 10 uM by radioligand binding assay"}, "[9]": {"target": "Acetylcholinesterase (Homo sapiens) (UniProt P22303)", "assay": "Binding affinity to human acetylcholinesterase at 10 uM"}, "Homo sapiens [10]": {"organism": "Homo sapiens", "assay": "Binding affinity to GABA receptor (unknown origin) at 10 uM by radioligand binding assay"}, "Homo sapiens [11]": {"organism": "Homo sapiens", "assay": "Binding affinity to L-type calcium channel diltiazem binding site (unknown origin) at 10 uM by radioligand binding assay"}, "[12]": {"target": "Prostaglandin E2 receptor EP4 subtype (Homo sapiens) (UniProt P35408)", "sequence (P35408 whole entry)": "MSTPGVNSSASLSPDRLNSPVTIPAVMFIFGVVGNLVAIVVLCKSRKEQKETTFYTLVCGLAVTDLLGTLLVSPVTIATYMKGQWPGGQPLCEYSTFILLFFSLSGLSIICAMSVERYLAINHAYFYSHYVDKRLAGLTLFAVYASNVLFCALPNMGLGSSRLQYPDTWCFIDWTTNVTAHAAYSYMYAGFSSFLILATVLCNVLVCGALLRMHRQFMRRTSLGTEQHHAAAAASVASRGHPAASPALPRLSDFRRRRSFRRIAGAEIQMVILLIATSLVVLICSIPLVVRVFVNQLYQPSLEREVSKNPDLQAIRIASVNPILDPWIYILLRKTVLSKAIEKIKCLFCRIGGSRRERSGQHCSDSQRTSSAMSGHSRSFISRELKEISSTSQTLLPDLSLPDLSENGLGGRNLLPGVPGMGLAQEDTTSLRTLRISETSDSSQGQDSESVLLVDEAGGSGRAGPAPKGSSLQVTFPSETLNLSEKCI", "assay": "Binding affinity to human EP4 receptor at 10 uM by radioligand binding assay"}, "[13]": {"target": "Histone deacetylase 3 (Homo sapiens) (UniProt O15379)", "sequence (O15379 whole entry)": "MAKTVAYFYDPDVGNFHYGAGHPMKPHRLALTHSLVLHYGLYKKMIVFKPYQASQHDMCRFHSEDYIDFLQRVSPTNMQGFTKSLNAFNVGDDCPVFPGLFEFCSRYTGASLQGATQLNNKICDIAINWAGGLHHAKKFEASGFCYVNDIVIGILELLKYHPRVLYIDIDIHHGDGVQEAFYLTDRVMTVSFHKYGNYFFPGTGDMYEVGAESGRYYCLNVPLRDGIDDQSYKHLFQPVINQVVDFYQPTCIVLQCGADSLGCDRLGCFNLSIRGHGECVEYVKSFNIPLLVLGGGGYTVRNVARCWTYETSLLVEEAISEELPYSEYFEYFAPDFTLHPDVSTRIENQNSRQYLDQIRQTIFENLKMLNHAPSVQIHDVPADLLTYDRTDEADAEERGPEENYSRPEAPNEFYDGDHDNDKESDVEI", "assay": "Binding affinity to human HDAC3 at 10 uM"}, "[14]": {"target": "Secretory phospholipase A2 receptor (Homo sapiens) (UniProt Q13018)", "assay": "Binding affinity to human sPLA2 at 10 uM"}, "Homo sapiens [15]": {"organism": "Homo sapiens", "assay": "Binding affinity to GABA-gated chloride channel (unknown origin) at 10 uM by radioligand binding assay"}, "[16]": {"target": "Prostaglandin E2 receptor EP3 subtype (Homo sapiens) (UniProt P43115)", "assay": "Binding affinity to human EP3 receptor at 10 uM by radioligand binding assay"}, "[17]": {"target": "Histone deacetylase 11 (Homo sapiens) (UniProt Q96DB2)", "sequence (Q96DB2 whole entry)": "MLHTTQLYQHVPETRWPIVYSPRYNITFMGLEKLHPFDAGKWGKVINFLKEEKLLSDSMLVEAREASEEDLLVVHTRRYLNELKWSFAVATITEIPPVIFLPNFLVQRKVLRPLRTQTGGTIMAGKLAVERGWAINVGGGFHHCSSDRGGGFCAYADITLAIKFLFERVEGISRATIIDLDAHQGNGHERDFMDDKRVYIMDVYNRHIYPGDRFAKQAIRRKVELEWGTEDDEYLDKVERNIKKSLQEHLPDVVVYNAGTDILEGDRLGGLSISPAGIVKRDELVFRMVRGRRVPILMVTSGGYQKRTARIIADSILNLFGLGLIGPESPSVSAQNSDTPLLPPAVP", "assay": "Binding affinity to human HDAC11 at 10 uM"}, "[18]": {"target": "Histamine H2 receptor (Homo sapiens) (UniProt P25021)", "sequence (P25021 whole entry)": "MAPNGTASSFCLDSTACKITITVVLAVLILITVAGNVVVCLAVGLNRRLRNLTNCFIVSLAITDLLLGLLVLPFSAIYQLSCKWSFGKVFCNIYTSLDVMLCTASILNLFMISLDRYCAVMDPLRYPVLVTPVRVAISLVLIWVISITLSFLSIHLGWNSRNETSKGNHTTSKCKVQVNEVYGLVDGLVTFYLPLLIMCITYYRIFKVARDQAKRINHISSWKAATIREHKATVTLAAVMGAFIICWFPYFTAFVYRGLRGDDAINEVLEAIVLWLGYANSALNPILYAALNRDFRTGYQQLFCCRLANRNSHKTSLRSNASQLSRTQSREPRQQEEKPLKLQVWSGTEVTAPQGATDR", "assay": "Binding affinity to human histamine H2 receptor at 10 uM by radioligand binding assay"}, "[19]": {"target": "Vasopressin V2 receptor (Homo sapiens) (UniProt P30518)", "sequence (P30518 whole entry)": "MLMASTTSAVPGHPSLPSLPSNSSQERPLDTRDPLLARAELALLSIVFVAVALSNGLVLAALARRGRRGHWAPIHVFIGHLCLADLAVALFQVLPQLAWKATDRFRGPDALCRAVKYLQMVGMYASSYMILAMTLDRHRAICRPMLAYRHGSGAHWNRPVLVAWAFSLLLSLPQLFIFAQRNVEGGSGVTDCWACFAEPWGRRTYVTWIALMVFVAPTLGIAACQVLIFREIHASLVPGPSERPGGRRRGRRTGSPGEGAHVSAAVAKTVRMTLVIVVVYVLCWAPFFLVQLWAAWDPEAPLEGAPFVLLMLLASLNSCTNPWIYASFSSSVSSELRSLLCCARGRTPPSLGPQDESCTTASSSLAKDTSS", "assay": "Binding affinity to human V2 receptor at 10 uM by radioligand binding assay"}, "[20]": {"target": "Transmembrane domain-containing protein TMIGD3 (Homo sapiens) (UniProt P0DMS9)", "assay": "Binding affinity to human adenosine A3 receptor at 10 uM by radioligand binding assay"}, "[21]": {"target": "Nociceptin receptor (Homo sapiens) (UniProt P41146)", "assay": "Binding affinity to human NOP receptor at 10 uM by radioligand binding assay"}, "Homo sapiens [22]": {"organism": "Homo sapiens", "assay": "Binding affinity to GABA transporter (unknown origin) at 10 uM by radioligand binding assay"}, "[23]": {"target": "Substance-P receptor (Homo sapiens) (UniProt P25103)", "assay": "Binding affinity to human NK1 receptor at 10 uM by radioligand binding assay"}, "[24]": {"target": "Thyrotropin-releasing hormone receptor (Homo sapiens) (UniProt P34981)", "assay": "Binding affinity to human TRH1 receptor at 10 uM by radioligand binding assay"}, "[25]": {"target": "Adenosine receptor A1 (Homo sapiens) (UniProt P30542)", "sequence (P30542 whole entry)": "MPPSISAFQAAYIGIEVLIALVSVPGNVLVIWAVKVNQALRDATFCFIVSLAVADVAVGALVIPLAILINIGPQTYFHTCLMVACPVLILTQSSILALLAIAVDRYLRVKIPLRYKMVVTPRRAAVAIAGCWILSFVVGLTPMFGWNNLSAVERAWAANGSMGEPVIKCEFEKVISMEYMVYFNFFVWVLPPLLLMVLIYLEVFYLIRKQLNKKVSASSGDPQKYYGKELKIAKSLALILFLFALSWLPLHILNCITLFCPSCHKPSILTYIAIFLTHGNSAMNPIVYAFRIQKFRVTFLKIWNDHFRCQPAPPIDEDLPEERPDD", "assay": "Binding affinity to human adenosine A1 receptor at 10 uM by radioligand binding assay"}, "[26]": {"target": "High affinity choline transporter 1 (Homo sapiens) (UniProt Q9GZV3)", "sequence (Q9GZV3 whole entry)": "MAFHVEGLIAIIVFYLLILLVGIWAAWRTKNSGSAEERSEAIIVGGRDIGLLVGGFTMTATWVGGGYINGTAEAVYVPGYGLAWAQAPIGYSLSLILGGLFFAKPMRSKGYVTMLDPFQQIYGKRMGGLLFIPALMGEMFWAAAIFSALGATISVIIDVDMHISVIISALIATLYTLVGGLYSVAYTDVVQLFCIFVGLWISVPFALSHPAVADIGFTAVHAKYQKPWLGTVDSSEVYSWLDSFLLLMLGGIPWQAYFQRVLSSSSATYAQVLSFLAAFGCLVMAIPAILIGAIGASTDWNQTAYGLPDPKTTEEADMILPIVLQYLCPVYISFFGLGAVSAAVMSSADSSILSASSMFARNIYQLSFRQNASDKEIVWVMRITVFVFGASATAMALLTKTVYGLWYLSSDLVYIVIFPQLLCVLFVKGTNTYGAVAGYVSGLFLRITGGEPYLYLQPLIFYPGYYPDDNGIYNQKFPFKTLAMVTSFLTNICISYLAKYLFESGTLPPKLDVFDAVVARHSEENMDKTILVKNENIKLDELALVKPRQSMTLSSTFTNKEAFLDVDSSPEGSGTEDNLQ", "assay": "Binding affinity to human CHT1 transporter at 10 uM by radioligand binding assay"}, "[27]": {"target": "NAD-dependent protein deacetylase sirtuin-2 (Homo sapiens) (UniProt Q8IXJ6)", "assay": "Inhibition of human sirtuin 2 at 10 uM", "design": "scale not given: the % may be the effect or the level left"}, "[28]": {"target": "Progesterone receptor (Homo sapiens) (UniProt P06401)", "assay": "Binding affinity to human progesterone receptor at 10 uM by radioligand binding assay"}, "[29]": {"target": "Glutamate [NMDA] receptor (Homo sapiens) (UniProt Q05586+Q12879+Q13224+O15399+O60391+Q14957+Q8TCU5)", "assay": "Binding affinity to NMDA receptor (unknown origin) at 10 uM by radioligand binding assay"}, "Homo sapiens [30]": {"organism": "Homo sapiens", "assay": "Binding affinity to kainate receptor (unknown origin) at 10 uM by radioligand binding assay"}, "[31]": {"target": "T1, Prostaglandin G/H synthase 1 (Ovis aries, UniProt P05979)", "T1 sequence (P05979 whole entry)": "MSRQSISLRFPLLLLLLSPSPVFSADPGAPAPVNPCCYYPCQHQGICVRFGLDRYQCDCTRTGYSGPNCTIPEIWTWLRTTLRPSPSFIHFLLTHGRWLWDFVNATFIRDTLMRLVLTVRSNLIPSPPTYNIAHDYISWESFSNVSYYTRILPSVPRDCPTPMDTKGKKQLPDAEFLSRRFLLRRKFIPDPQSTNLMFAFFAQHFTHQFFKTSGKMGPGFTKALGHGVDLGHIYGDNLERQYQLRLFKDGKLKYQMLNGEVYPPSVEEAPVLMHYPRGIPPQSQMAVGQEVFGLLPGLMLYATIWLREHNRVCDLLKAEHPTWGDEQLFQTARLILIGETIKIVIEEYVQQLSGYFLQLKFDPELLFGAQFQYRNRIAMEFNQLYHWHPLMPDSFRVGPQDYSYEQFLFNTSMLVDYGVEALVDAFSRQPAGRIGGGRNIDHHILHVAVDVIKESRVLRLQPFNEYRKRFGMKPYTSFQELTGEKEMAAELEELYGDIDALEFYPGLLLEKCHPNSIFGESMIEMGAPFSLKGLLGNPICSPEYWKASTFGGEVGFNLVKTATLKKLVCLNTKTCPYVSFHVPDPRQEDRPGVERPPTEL", "assay": "Inhibition of ovine COX1 assessed as production of PGF2-alpha preincubated with compound followed by the addition of 5 uM arachidonic acid as substrate by enzyme immunoassay"}, "[32]": {"target": "Adrenergic receptor alpha-1 (Homo sapiens) (UniProt P35348+P25100+P35368)", "assay": "Binding affinity to human alpha-1 adrenergic receptor (unknown origin) at 10 uM by radioligand binding assay"}, "[33]": {"target": "Corticotropin-releasing factor receptor 1 (Homo sapiens) (UniProt P34998)", "sequence (P34998 whole entry)": "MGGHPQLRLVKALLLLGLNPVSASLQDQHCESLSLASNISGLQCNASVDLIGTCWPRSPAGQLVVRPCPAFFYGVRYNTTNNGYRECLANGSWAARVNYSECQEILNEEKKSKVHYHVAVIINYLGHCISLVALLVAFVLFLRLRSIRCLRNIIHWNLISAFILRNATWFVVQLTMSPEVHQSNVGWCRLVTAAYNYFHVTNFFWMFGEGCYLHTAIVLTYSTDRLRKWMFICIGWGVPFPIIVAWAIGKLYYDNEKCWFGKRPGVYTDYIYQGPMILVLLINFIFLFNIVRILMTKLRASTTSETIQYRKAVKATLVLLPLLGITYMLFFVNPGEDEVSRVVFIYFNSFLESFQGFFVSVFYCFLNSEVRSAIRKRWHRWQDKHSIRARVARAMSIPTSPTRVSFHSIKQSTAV", "assay": "Binding affinity to human CRF1 receptor at 10 uM by radioligand binding assay"}, "[34]": {"target": "Peroxisome proliferator-activated receptor gamma (Homo sapiens) (UniProt P37231)", "sequence (P37231 whole entry)": "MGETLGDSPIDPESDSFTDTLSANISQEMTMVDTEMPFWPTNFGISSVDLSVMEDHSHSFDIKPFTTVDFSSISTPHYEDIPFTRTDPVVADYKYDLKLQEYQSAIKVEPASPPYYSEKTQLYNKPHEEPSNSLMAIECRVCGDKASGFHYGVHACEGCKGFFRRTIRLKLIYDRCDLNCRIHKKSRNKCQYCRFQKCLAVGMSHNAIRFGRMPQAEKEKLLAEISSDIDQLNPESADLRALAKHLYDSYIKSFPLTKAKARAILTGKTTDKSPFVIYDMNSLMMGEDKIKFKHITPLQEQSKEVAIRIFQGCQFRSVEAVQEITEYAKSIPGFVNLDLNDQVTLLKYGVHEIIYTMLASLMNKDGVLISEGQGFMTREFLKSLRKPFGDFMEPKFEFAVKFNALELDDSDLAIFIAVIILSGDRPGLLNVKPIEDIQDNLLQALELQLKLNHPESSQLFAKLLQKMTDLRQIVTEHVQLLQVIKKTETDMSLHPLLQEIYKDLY", "assay": "Binding affinity to human PPAR-gamma receptor at 10 uM by radioligand binding assay"}, "Homo sapiens [35]": {"organism": "Homo sapiens", "assay": "Binding affinity to AMPA receptor (unknown origin) at 10 uM by radioligand binding assay"}}}
{"smiles": "CCCCCCNC(=O)Oc1cccc(-c2ccc([C@H](C)C(=O)O)cc2F)c1", "values": [{"measurement": "Activity", "setting": "[1]", "value": -13.6, "unit": "%"}, {"measurement": "Activity", "setting": "[2]", "value": -3.4, "unit": "%"}, {"measurement": "Activity", "setting": "Homo sapiens [3]", "value": -0.5, "unit": "%"}, {"measurement": "Activity", "setting": "[4]", "value": 2.9, "unit": "%"}, {"measurement": "Activity", "setting": "Homo sapiens [5]", "value": -1.8, "unit": "%"}, {"measurement": "Activity", "setting": "[6]", "value": -4.3, "unit": "%"}, {"measurement": "Activity", "setting": "[7]", "value": -17.5, "unit": "%"}, {"measurement": "Activity", "setting": "[8]", "value": -7.3, "unit": "%"}, {"measurement": "Activity", "setting": "[9]", "value": -4.8, "unit": "%"}, {"measurement": "Activity", "setting": "Homo sapiens [10]", "value": -9.5, "unit": "%"}, {"measurement": "Activity", "setting": "Homo sapiens [11]", "value": -19.5, "unit": "%"}, {"measurement": "Activity", "setting": "[12]", "value": 18.7, "unit": "%"}, {"measurement": "Activity", "setting": "[13]", "value": -4.3, "unit": "%"}, {"measurement": "Activity", "setting": "[14]", "value": 0.4, "unit": "%"}, {"measurement": "Activity", "setting": "Homo sapiens [15]", "value": 36, "unit": "%"}, {"measurement": "Activity", "setting": "[16]", "value": 10.9, "unit": "%"}, {"measurement": "Activity", "setting": "[17]", "value": -52, "unit": "%"}, {"measurement": "Activity", "setting": "[18]", "value": -0.4, "unit": "%"}, {"measurement": "Activity", "setting": "[19]", "value": 4.2, "unit": "%"}, {"measurement": "Activity", "setting": "[20]", "value": 18.8, "unit": "%"}, {"measurement": "Activity", "setting": "[21]", "value": -1.7, "unit": "%"}, {"measurement": "Activity", "setting": "Homo sapiens [22]", "value": -3.3, "unit": "%"}, {"measurement": "Activity", "setting": "[23]", "value": -6.3, "unit": "%"}, {"measurement": "Activity", "setting": "[24]", "value": -14.9, "unit": "%"}, {"measurement": "Activity", "setting": "[25]", "value": -8, "unit": "%"}, {"measurement": "Activity", "setting": "[26]", "value": -18.6, "unit": "%"}, {"measurement": "Activity", "setting": "[27]", "value": 1.3, "unit": "%"}, {"measurement": "Activity", "setting": "[28]", "value": -9.5, "unit": "%"}, {"measurement": "Activity", "setting": "[29]", "value": 3.3, "unit": "%"}, {"measurement": "Activity", "setting": "Homo sapiens [30]", "value": 17.1, "unit": "%"}, {"measurement": "IC50", "setting": "[31]", "value": 0.29, "unit": "nM"}, {"measurement": "Activity", "setting": "[32]", "value": -3.8, "unit": "%"}, {"measurement": "Activity", "setting": "[33]", "value": 11.9, "unit": "%"}, {"measurement": "Activity", "setting": "[34]", "value": 80.1, "unit": "%"}, {"measurement": "Activity", "setting": "Homo sapiens [35]", "value": -4.6, "unit": "%"}]}
